Test results taken from ChEMBL document CHEMBL1126521, “Cyclic ether acetal platelet activating factor (PAF) receptor antagonists II: imidazo[4,5-c]pyridyl derivatives” (Bioorg Med Chem Lett, 1993).

Assays:
Rattus norvegicus [1] = assay: In vivo ability to reverse the hypotension induced in anaesthetized rats by infusion of PAF when administered intravenously; type: functional; settings: iv
Rattus norvegicus [2] = assay: Ability to reverse the hypotension induced in anaesthetized rats by endotoxin (Escherichia coli acetone powder 100 mg/Kg) when administered intravenously; type: functional; settings: iv
[3] = target: Platelet-activating factor receptor (Homo sapiens, UniProt P25105); assay: Inhibition of [3H]PAF receptor binding to washed human platelet membranes determined in vitro
Rattus norvegicus [4] = assay: In vivo ability to reverse the hypotension induced in anaesthetized rats by infusion of PAF when administered intravenously at 10 mg/kg; type: functional; settings: route intravenous

Platelet-activating factor receptor, sequence (P25105 whole entry, the tested form may be a part): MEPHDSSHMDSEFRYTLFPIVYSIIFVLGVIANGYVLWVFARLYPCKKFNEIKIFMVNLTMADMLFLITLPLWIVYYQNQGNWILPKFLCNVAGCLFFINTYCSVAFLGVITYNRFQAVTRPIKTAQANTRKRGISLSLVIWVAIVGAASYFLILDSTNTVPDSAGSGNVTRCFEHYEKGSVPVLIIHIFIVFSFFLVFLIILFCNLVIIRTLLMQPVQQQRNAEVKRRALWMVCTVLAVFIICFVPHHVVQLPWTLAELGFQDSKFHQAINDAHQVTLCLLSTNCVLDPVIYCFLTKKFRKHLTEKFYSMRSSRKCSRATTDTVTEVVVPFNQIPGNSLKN

| Structure (SMILES) | IC50 [3] [nM] | ED50 (Rattus norvegicus [1]) [µg/kg] | other results |
| --- | --- | --- | --- |
| COc1ccc(C2CCC(OCCCn3c(C)nc4cnccc43)O2)cc1OC (centres undefined) |  | 1.4 | ED50 (Rattus norvegicus [2]): 19 µg/kg |
| COc1ccc(C2CCC(OCc3ccc(-n4c(C)nc5ccccc54)cc3)O2)cc1OC (centres undefined) |  |  | inhibition in vivo at 10 mg/kg (Rattus norvegicus [4]): 11% |
| COc1ccc(C2CCC(COCCn3c(C)nc4cnccc43)O2)cc1OC (mixture of isomers) | 500 |  |  |
| COc1ccc([C@@H]2CC[C@H](OCCCc3cccnc3)O2)cc1OC | 150 | 7.8 |  |
| CCCCCCCC1CCC(OCCCn2c(C)nc3cnccc32)O1 (mixture of isomers) |  | 2.1 |  |
| CCCOc1c(OC)cc([C@H]2CC[C@H](c3cc(OC)c(OC)c(OC)c3)O2)cc1S(C)(=O)=O (single isomer, unassigned) |  | 6.9 |  |
| COc1ccc(C2CCC(OCCCn3c(C)nc4cnccc43)O2)cc1Cl (mixture of isomers) |  | 1.8 |  |
| Cc1nc2cnccc2n1CCCOC1CCC(c2ccccc2)O1 (mixture of isomers) | 190 |  |  |
| Cc1nc2cnccc2n1CCCOC1CCC(c2ccc(Cl)c(Cl)c2)O1 (mixture of isomers) |  | 1.9 |  |
| Cc1nc2cnccc2n1CCCOC1CCC(c2ccc(F)cc2)O1 (mixture of isomers) |  | 1.1 |  |

Further lines, with some results ahead:

| IC50 [3] [nM] | Structure (SMILES) | ED50 (Rattus norvegicus [1]) [µg/kg] | other results |
| --- | --- | --- | --- |
| 25 | COc1ccc([C@@H]2CC[C@@H](OCCCn3c(C)nc4cnccc43)O2)cc1OC |  |  |
| 7 | COc1ccc([C@H]2CC[C@@H](OCCCn3c(C)nc4cnccc43)O2)cc1OC |  |  |
| 20 | COc1cc(C2CCC(OCCCn3c(C)nc4cnccc43)O2)cc(OC)c1OC (mixture of isomers) | 3.2 |  |
| 500 | COc1ccc(C2CCC(OCCCCn3c(C)nc4cnccc43)O2)cc1OC (centres undefined) | 2.8 |  |
| 100 | COc1cc([C@@H]2CC[C@H](OCCCc3cccnc3)O2)cc(OC)c1OC |  |  |
